# In EP0598515A1, “Method for herbicidal activity-enhancing, activity-enhanced herbicidal composition and activity-enhancing composition” (ISHIHARA SANGYO KAISHA LTD., priority 1992, dated 1994):
# Where two headings read alike, the source gives them in different places.
# Experiments:
# Type in all cases: in vivo
# [1] = system: Crabgrass (Digitaria sanguinalis L.); assay: Test Example 7: pot test, Example 8 suspension concentrate with Frigate; conditions: 20 days after treatment, duplicate; for inhibition at 5 g/ha / inhibition at 10 g/ha / inhibition at 20 g/ha / inhibition at 40 g/ha: Digitaria sanguinalis, 480 h, read-out: Growth Inhibition (%) of Crabgrass; for inhibition at 20 g/ha: Compound A 20 g/ha; for inhibition at 40 g/ha: Compound A 40 g/ha
# Method: Crabgrass (Digitaria sanguinalis L.) seeds were sown in 1/1,000,000-hectare pots filled with upland soil and arranged in a duplicate system. When the crabgrass plants grew to a 3- to 3.3-leaf stage, the oil-based suspension concentrate obtained in Example 8 was diluted with 500 liters/hectare of water containing a predetermined amount of Frigate and was applied foliarly to the plants with a small spray gun.
# Twenty days after treatment, the growth inhibition of plants was evaluated with visual observation in the same manner as in Teat Example 1 and are shown in Table 7.
# [2] = system: Velvetleaf (Abutilon theophrasti MEDIC.); assay: Test Example 12: field plot test, growth inhibition; conditions: Example 8 suspension concentrate, 27 days after treatment, field plots; for inhibition at 40 g/ha: Compound A 40 g/ha
# Description: (§1) In field plots of 3 m² (1 m × 3 m) unit arranged in a duplicate system, seeds of corn, crabgrass (Digitaria sanguinalis L.), green foxtail (Setaria viridis L.), common lambsquarters (Chenopodium album L.), slender amaranth (Amaranthus virdis L.) and velvetleaf (Abutilon theophrasti MEDIC.) were sown and grown. Also, barnyardgrass (Echinochloa crus-galli L.), henbit (Lamiun amplexlcaule L.), pale smartweed (Polygonum lapathifolium L.) and threeseeded copperleaf (Acalypha australis L.) were allowed to grow spontaneously. When the plants grew to certain stages (corn: 6.1 to 6.5-leaf stage, crabgrass: 2.0 to 4.5-leaf stage, green foxtail: 3.0 to 4.5-leaf stage, common lambsquarters: 4.0 to 8.0-leaf stage, slender amaranth: 1.0 to 4.0-leaf stage, velvetleaf: 2.0 to 3.5-leaf stage, barnyardgrass: 3.0 to 4.5-leaf stage, henbit: 2.0 to 5.0 cm, pale smartweed: 3.0 to 5.0-leaf stage and threeseeded copperleaf: 2.0 to 4.0-leaf stage), the oil-based suspension concentrate obtained in Example 8 was diluted with 200 liters/hectare of water containing a predetermined amount of Frigate and was applied foliarly to the plants with a small spray gun.
# (§2) Twenty seven days after treatment, the growth inhibition of plants except for corn plants was evaluated with visual observation in the same manner as in Test Example 1 and are shown in Table 12.
# [3] = system: green foxtail (Setaria viridis L.); assay: as above; conditions: 648 h, Example 8 suspension concentrate, 27 days after treatment, field plots, read-out: Growth Inhibition (%) SV
# Description: as §1, §2
# [4] = system: pale smartweed (Polygonum lapathifolium L.); assay: as above; conditions: Example 8 suspension concentrate, 27 days after treatment, field plots; for inhibition at 60 g/ha: Compound A 60 g/ha
# Description: as §1, §2
# [5] = system: Crabgrass (Digitaria sanguinalis L.); assay: as above; conditions: 648 h, Example 8 suspension concentrate, 27 days after treatment, field plots, read-out: Growth Inhibition (%) DS; for inhibition at 40 g/ha: Compound A 40 g/ha; for inhibition at 60 g/ha: Compound A 60 g/ha
# Description: as §1, §2
# [6] = system: Velvetleaf (Abutilon theophrasti MEDIC.); assay: Test Example 9: pot test, Example 8 suspension concentrate with Frigate; conditions: 22 days after treatment; for inhibition at 20 g/ha: Compound A 20 g/ha; for inhibition at 40 g/ha: Compound A 40 g/ha
# Method: (§3) Velvetleaf (Abutilon theophrasti MEDIC.) and common cocklebur (Xanthium strumarium L.) seeds were sown in 1/1,000,000-hectare pots filled with upland soil and arranged in a duplicate system. When the velvetleaf plants and common cocklebur plants grew to a 2.1- and 2.3-leaf stage, respectively, the oil-based suspension concentrate obtained in Example 8 was diluted with 500 liters/hectare of water containing a predetermined amount of Frigate and was applied foliarly to the plants with a small spray gun.
# (§4) Twenty two days after treatment, the growth inhibition of plants was evaluated with visual observation in the same manner as in Test Example 1 and are shown in Table 9.
# [7] = system: common cocklebur (Xanthium strumarium L.); assay: as above; conditions: 22 days after treatment; for inhibition at 40 g/ha: Compound A 40 g/ha
# Method: as §3, §4
# [8] = Frigate 0.125 % by volume, Compound A 5 g/ha
# [9] = Frigate 0.2 % by volume, Compound A 20 g/ha
# [10] = Frigate 0.2 % by volume, Compound A 30 g/ha
# [11] = Abutilon theophrasti, 528 h, Frigate 0.125 % by volume, duplicate, read-out: Growth Inhibition (%) Velvetleaf
# [12] = Abutilon theophrasti, 528 h, Frigate 0.25 % by volume, duplicate, read-out: Growth Inhibition (%) Velvetleaf
# [13] = Abutilon theophrasti, 528 h, Frigate: No addition, duplicate, read-out: Growth Inhibition (%) Velvetleaf
# [14] = Frigate 0.25 % by volume, Compound A 10 g/ha, duplicate
compound,measurement,setting,value
"COc1cc(OC)nc(NC(=O)NS(=O)(=O)c2ncccc2C(=O)N(C)C)n1 [Compound A, N-[(4,6-dimethoxypyrimidin-2-yl)aminocarbonyl]-3-dimethylaminocarbonyl-2-pyridinesulfonamide]",inhibition at 5 g/ha,[1]; [8],40%
same,inhibition at 10 g/ha,"[1]; Frigate 0.125 % by volume, Compound A 10 g/ha",85%
same,inhibition at 20 g/ha,[1]; Frigate 0.125 % by volume,90%
same,inhibition at 40 g/ha,[1]; Frigate 0.125 % by volume,100%
same,inhibition at 5 g/ha,"[1]; Frigate 0.25 % by volume, Compound A 5 g/ha",50%
same,inhibition at 10 g/ha,"[1]; Frigate 0.25 % by volume, Compound A 10 g/ha",95%
same,inhibition at 20 g/ha,[1]; Frigate 0.25 % by volume,100%
same,inhibition at 40 g/ha,[1]; Frigate 0.25 % by volume,100%
same,inhibition at 5 g/ha,"[1]; Frigate 0.5 % by volume, Compound A 5 g/ha",75%
same,inhibition at 10 g/ha,"[1]; Frigate 0.5 % by volume, Compound A 10 g/ha",95%
same,inhibition at 20 g/ha,[1]; Frigate 0.5 % by volume,100%
same,inhibition at 40 g/ha,[1]; Frigate 0.5 % by volume,98%
same,inhibition at 5 g/ha,"[1]; Frigate: No addition, Compound A 5 g/ha",0%
same,inhibition at 20 g/ha,[1]; Frigate: No addition,70%
same,inhibition at 40 g/ha,[1]; Frigate: No addition,85%
same,Growth Inhibition (%) of Crabgrass,[1]; [8],45%
same,Growth Inhibition (%) of Crabgrass,"[1]; Frigate: No addition, Compound A 10 g/ha",5%
same,inhibition at 20 g/ha,"[2]; Abutilon theophrasti, 648 h, Frigate 0.2 % by volume, Compound A 20 g/ha",75%
same,inhibition at 30 g/ha,"[2]; Abutilon theophrasti, 648 h, Frigate 0.2 % by volume, Compound A 30 g/ha",80%
same,inhibition at 40 g/ha,"[2]; Abutilon theophrasti, 648 h, Frigate 0.2 % by volume",80%
same,inhibition at 60 g/ha,"[2]; Abutilon theophrasti, 648 h, Frigate 0.2 % by volume, Compound A 60 g/ha",95%
same,inhibition at 40 g/ha,"[2]; Abutilon theophrasti, 648 h, Frigate: No addition",70%
same,inhibition at 60 g/ha,"[2]; Abutilon theophrasti, 648 h, Frigate: No addition, Compound A 60 g/ha",65%
same,Growth Inhibition (%) AT,"[2]; Frigate 0.2 % by volume, Compound A 60 g/ha",100%
same,inhibition at 20 g/ha,[3]; [9],100%
same,inhibition at 30 g/ha,[3]; [10],100%
same,inhibition at 40 g/ha,"[3]; Frigate 0.2 % by volume, Compound A 40 g/ha",100%
same,inhibition at 60 g/ha,"[3]; Frigate: No addition, Compound A 60 g/ha",100%
same,Growth Inhibition (%) PL,[4]; [9],80%
same,Growth Inhibition (%) PL,"[4]; Frigate: No addition, Compound A 40 g/ha",70%
same,inhibition at 20 g/ha,"[4]; Persicaria lapathifolia, 648 h, Frigate 0.2 % by volume, Compound A 20 g/ha, read-out: Growth Inhibition (%) PL",100%
same,inhibition at 30 g/ha,"[4]; Persicaria lapathifolia, 648 h, Frigate 0.2 % by volume, Compound A 30 g/ha, read-out: Growth Inhibition (%) PL",100%
same,inhibition at 40 g/ha,"[4]; Persicaria lapathifolia, 648 h, Frigate 0.2 % by volume, Compound A 40 g/ha, read-out: Growth Inhibition (%) PL",95%
same,inhibition at 60 g/ha,"[4]; Persicaria lapathifolia, 648 h, Frigate 0.2 % by volume, read-out: Growth Inhibition (%) PL",98%
same,inhibition at 40 g/ha,"[4]; Persicaria lapathifolia, 648 h, Frigate: No addition, Compound A 40 g/ha, read-out: Growth Inhibition (%) PL",90%
same,inhibition at 60 g/ha,"[4]; Persicaria lapathifolia, 648 h, Frigate: No addition, read-out: Growth Inhibition (%) PL",100%
same,inhibition at 20 g/ha,[5]; [9],90%
same,inhibition at 30 g/ha,[5]; [10],95%
same,inhibition at 40 g/ha,[5]; Frigate 0.2 % by volume,95%
same,inhibition at 60 g/ha,[5]; Frigate 0.2 % by volume,99%
same,inhibition at 40 g/ha,[5]; Frigate: No addition,95%
same,inhibition at 60 g/ha,[5]; Frigate: No addition,98%
same,inhibition at 10 g/ha,"[6]; Abutilon theophrasti, 528 h, Frigate 0.125 % by volume, Compound A 10 g/ha, duplicate, read-out: Growth Inhibition (%) Velvetleaf",30%
same,inhibition at 20 g/ha,[6]; [11],65%
same,inhibition at 40 g/ha,[6]; [11],85%
same,inhibition at 10 g/ha,"[6]; Abutilon theophrasti, 528 h, Frigate 0.25 % by volume, Compound A 10 g/ha, duplicate, read-out: Growth Inhibition (%) Velvetleaf",40%
same,inhibition at 20 g/ha,[6]; [12],80%
same,inhibition at 40 g/ha,[6]; [12],85%
same,inhibition at 10 g/ha,"[6]; Abutilon theophrasti, 528 h, Frigate 0.5 % by volume, Compound A 10 g/ha, duplicate, read-out: Growth Inhibition (%) Velvetleaf",60%
same,inhibition at 20 g/ha,"[6]; Abutilon theophrasti, 528 h, Frigate 0.5 % by volume, duplicate, read-out: Growth Inhibition (%) Velvetleaf",80%
same,inhibition at 40 g/ha,"[6]; Abutilon theophrasti, 528 h, Frigate 0.5 % by volume, read-out: Growth Inhibition (%) Velvetleaf",90%
same,inhibition at 20 g/ha,[6]; [13],20%
same,inhibition at 40 g/ha,[6]; [13],65%
same,inhibition at 50 g/ha,"[6]; Abutilon theophrasti, 528 h, Frigate: No addition, Compound A 50 g/ha, duplicate, read-out: Growth Inhibition (%) Velvetleaf",75%
same,inhibition at 60 g/ha,"[6]; Abutilon theophrasti, 528 h, Frigate: No addition, Compound A 60 g/ha, duplicate, read-out: Growth Inhibition (%) Velvetleaf",80%
same,Growth Inhibition (%) Velvetleaf,[6]; [14],50%
same,Growth Inhibition (%) Common Cocklebur,[7]; [14],25%
same,Growth Inhibition (%) Common Cocklebur,"[7]; Frigate: No addition, Compound A 20 g/ha, duplicate",40%
same,inhibition at 10 g/ha,"[7]; Xanthium strumarium, 528 h, Frigate 0.125 % by volume, Compound A 10 g/ha, duplicate, read-out: Growth Inhibition (%) Common Cocklebur",35%
same,inhibition at 20 g/ha,"[7]; Xanthium strumarium, 528 h, Frigate 0.125 % by volume, Compound A 20 g/ha, duplicate, read-out: Growth Inhibition (%) Common Cocklebur",80%
same,inhibition at 40 g/ha,"[7]; Xanthium strumarium, 528 h, Frigate 0.125 % by volume, duplicate, read-out: Growth Inhibition (%) Common Cocklebur",100%
same,inhibition at 10 g/ha,"[7]; Xanthium strumarium, 528 h, Frigate 0.25 % by volume, Compound A 10 g/ha, duplicate, read-out: Growth Inhibition (%) Common Cocklebur",30%
same,inhibition at 20 g/ha,"[7]; Xanthium strumarium, 528 h, Frigate 0.25 % by volume, Compound A 20 g/ha, duplicate, read-out: Growth Inhibition (%) Common Cocklebur",95%
same,inhibition at 40 g/ha,"[7]; Xanthium strumarium, 528 h, Frigate 0.25 % by volume, duplicate, read-out: Growth Inhibition (%) Common Cocklebur",100%
same,inhibition at 10 g/ha,"[7]; Xanthium strumarium, 528 h, Frigate 0.5 % by volume, Compound A 10 g/ha, duplicate, read-out: Growth Inhibition (%) Common Cocklebur",60%
same,inhibition at 20 g/ha,"[7]; Xanthium strumarium, 528 h, Frigate 0.5 % by volume, Compound A 20 g/ha, duplicate, read-out: Growth Inhibition (%) Common Cocklebur",98%
same,inhibition at 40 g/ha,"[7]; Xanthium strumarium, 528 h, Frigate 0.5 % by volume, read-out: Growth Inhibition (%) Common Cocklebur",100%
same,inhibition at 40 g/ha,"[7]; Xanthium strumarium, 528 h, Frigate: No addition, duplicate, read-out: Growth Inhibition (%) Common Cocklebur",85%
same,inhibition at 50 g/ha,"[7]; Xanthium strumarium, 528 h, Frigate: No addition, Compound A 50 g/ha, duplicate, read-out: Growth Inhibition (%) Common Cocklebur",95%
same,inhibition at 60 g/ha,"[7]; Xanthium strumarium, 528 h, Frigate: No addition, Compound A 60 g/ha, duplicate, read-out: Growth Inhibition (%) Common Cocklebur",98%
